The values that follow come from patent publication US12187720B2, “Compounds for treatment of cancer” (ONCTERNAL THERAPEUTICS, INC., priority 2010, dated 2025).

Read-outs that look alike come from different tables or passages of the source.

Assay [1] has as its system LNCaP. As to the kind of experiment: SRB cytotoxicity assay, LNCaP prostate cancer cells. The class given is cell-based, human. From the text:
(§1) Cells were stained with SRB solution.

The subject of assay [2] is melanoma and prostate cancer cell lines. The assay can be described thus: SRB cytotoxicity, summary or average over melanoma and prostate cancer cell lines. It counts as cell-based. The note with it: for IC50: average of all seven cell lines.
Assay [3] relates to DU 145. As to the kind of experiment: SRB cytotoxicity assay, DU 145 prostate cancer cells. The class given is cell-based. Particulars: Homo sapiens.
From the text: as §1

The test system of assay [4] is PC-3. As to the kind of experiment: SRB cytotoxicity assay, PC-3 prostate cancer cells. It counts as cell-based, human.
From the text: as §1

The subject of assay [5] is PPC-1. The assay can be described thus: SRB cytotoxicity assay, PPC-1 prostate cancer cells. It counts as cell-based, human.
From the text: as §1

[6] abbreviates: Homo sapiens, LNCaP, Table 6A, read-out: IC50 LNCaP.
Setting [7] is: Table 13A, read-out: inhibitory effects DU145.
[8] abbreviates: Homo sapiens, PC-3, Table 13A, read-out: inhibitory effects PC3.
Where [9] appears, read: Homo sapiens, LNCaP, Table 13A, read-out: inhibitory effects LNCaP.
Setting [10] is: Homo sapiens, PPC-1, Table 13A, read-out: inhibitory effects PPC1.
Where [11] appears, read: Table 6A, read-out: IC50 DU 145.
Setting [12] is: Homo sapiens, PPC-1, Table 6A, read-out: IC50 PPC-1.
Setting [13] is: Table 13B, read-out: inhibitory effects DU145.
[14] abbreviates: Homo sapiens, PC-3, Table 13B, read-out: inhibitory effects PC3.
[15] abbreviates: Homo sapiens, LNCaP, Table 13B, read-out: inhibitory effects LNCaP.
The mark [16] stands for this setting: Homo sapiens, PPC-1, Table 13B, read-out: inhibitory effects PPC1.

For `O=C(c1ccc(OC(F)(F)F)cc1)c1csc(-c2ccccc2)n1` [compound 13], in assay [1] (setting [6]), the IC50 is greater than 10 µM. For the molecule `COc1cc(/C=C\c2csc(-c3ccccc3)n2)cc(OC)c1OC` [3a, (Z)-2-Phenyl-4-(3,4,5-trimethoxystyryl)thiazole], the “antiproliferative activity in words” value in assay [2] is listed as “lost activity”. For `COc1cc(C(=O)c2cn(S(=O)(=O)c3ccccc3)c(-c3ccc(N(C)C)cc3)n2)cc(OC)c1OC` [11ga, (2-(4-(dimethylamino)phenyl)-1-(phenylsulfonyl)-1H-imidazol-4-yl)(3,4,5-trimethoxyphenyl)methanone], the IC50 in assay [2] was determined as 285 nM. Consider `COc1cc(C(=O)[C@H]2COC(c3ccccc3)=N2)cc(OC)c1OC` [35a, (2R)-(2-Phenyl-4,5-dihydro-oxazol-4-yl)-(3,4,5-trimethoxy-phenyl)-methanone], for which, in assay [2], the “antiproliferative activity in words” value is “hundreds of nanomolar range”.

As for `COc1cc(C(=O)c2coc(-c3ccccc3)n2)cc(OC)c1OC` [36a, (2-Phenyl-oxazol-4-yl)-(3,4,5-trimethoxy-phenyl)-methanone], in assay [2], the “antiproliferative activity in words” value is on record as “hundreds of nanomolar range”. Regarding `COc1cc(C(=O)c2nc(-c3ccc(O)cc3)c[nH]2)cc(OC)c1OC` [70i, (4-(4-hydroxyphenyl)-1H-imidazol-2-yl)(3,4,5-trimethoxyphenyl)methanone], the IC50 turned out to be 0.518 µM in assay [3] (setting [7]), 155 nM in assay [4] (setting [8]), 0.219 µM in assay [1] (setting [9]) and 0.122 µM in assay [5] (setting [10]). For `CN(C)c1ccc(-c2nc(C(=O)c3ccc(F)cc3)cn2S(=O)(=O)c2ccccc2)cc1` [11gb, (2-(4-(dimethylamino)phenyl)-1-(phenylsulfonyl)-1H-imidazol-4-yl)(4-fluorophenyl)methanone], the IC50 in assay [2] amounted to 87 nM. As for `COc1cc(C(=O)c2nc(-c3ccccc3)cn2C2CCCC2)cc(OC)c1OC` [70p, (1-cyclopentyl-4-phenyl-1H-imidazol-2-yl)(3,4,5-trimethoxyphenyl)methanone], the IC50 in assay [4] (setting [8]) worked out at 56 nM. As to `Cc1ccc(-c2nc(C(=O)c3ccc(F)cc3)cs2)cc1` [compound 11], the IC50 is roughly 10 µM in assay [3] (setting [11]), greater than 10 µM in assay [1] (setting [6]) and roughly 10 µM in assay [5] (setting [12]).

`O=C(c1ccc(F)cc1)c1c[nH]c(-c2ccccc2)n1` [12af, (4-fluorophenyl)(2-phenyl-1H-imidazol-4-yl)methanone] yielded an IC50 in assay [2] of 910 nM. The same measure, in the same setting: with `Cc1ccc(-c2nc(C(=O)c3ccc(F)cc3)cn2S(=O)(=O)c2ccccc2)cc1` [11db, (4-fluorophenyl)(1-(phenylsulfonyl)-2-(p-tolyl)-1H-imidazol-4-yl)methanone] the figure was 111 nM. On to `O=C(c1ccc(F)cc1)N1CCC(c2ccccc2)CC1` [compound 22], for which the IC50 in assay [1] (setting [6]) was greater than 20 µM.

As for “4-Methoxyphenyl(4-(3,4,5-trimethoxyphenyl)-1H-imidazol-2-yl)methanone and 4-methoxyphenyl(5-(3,4,5-trimethoxyphenyl)-1H-imidazol-2-yl)methanone [70y]”, the IC50 in assay [4] (Table 13B, read-out: inhibitory effects PC3) came out at 10400 nM; in assay [1] (Table 13B, read-out: inhibitory effects LNCaP) it was 0.709 µM; in assay [5] (Table 13B, read-out: inhibitory effects PPC1), 5.69 µM. As to `CCc1[nH]c(C(=O)c2cc(OC)c(OC)c(OC)c2)nc1-c1ccccc1` [70k, (5-ethyl-4-phenyl-1H-imidazol-2-yl)(3,4,5-trimethoxyphenyl)methanone], the IC50 in assay [3] (setting [7]) was 5.08 µM; in assay [4] (setting [8]), 3650 nM; in assay [1] (setting [9]), 2.03 µM; in assay [5] (setting [10]) it was 2.08 µM.

Take `COc1cc(-c2nc(C(=O)c3ccc(F)cc3)cn2C(=O)c2ccc(F)cc2)cc(OC)c1OC` [compound 30]: the IC50 in assay [1] (setting [6]) is greater than 10 µM.

On to `CCn1cc(-c2ccccc2)nc1C(=O)c1cc(OC)c(OC)c(OC)c1` [70n, (1-ethyl-4-phenyl-1H-imidazol-2-yl)(3,4,5-trimethoxyphenyl)methanone], for which the IC50 in assay [4] (setting [8]) is 25 nM. Regarding `COc1cc(C(=O)c2csc(-c3ccccc3)n2)cc(OC)c1OCc1ccccc1` [compound 9], the IC50 in assay [1] (setting [6]) was roughly 10 µM. With `O=C(c1ccc(F)cc1)c1nc(-c2ccc(F)cc2)c[nH]1` [70r, (4-fluorophenyl)(4-(4-fluorophenyl)-1H-imidazol-2-yl)methanone], the IC50 in assay [3] (setting [13]) was greater than 50 µM; in assay [4] (setting [14]), greater than 50000 nM; in assay [1] (setting [15]) it was greater than 50 µM; in assay [5] (setting [16]), greater than 50 µM. On to `COc1ccc(C(=O)n2ccnc2-c2ccc(F)cc2)cc1` [compound 24], for which the IC50 was greater than 10 µM in assay [3] (setting [11]); greater than 10000 nM in assay [4] (Homo sapiens, PC-3, Table 6A, read-out: IC50 PC-3); greater than 10 µM in assay [1] (setting [6]); greater than 10 µM in assay [5] (setting [12]). On to `O=C(c1ccc(F)cc1)c1csc(-c2ccccc2)n1` [compound 12], for which, in assay [1] (setting [6]), the IC50 was greater than 10 µM. `COc1cc(C(=O)c2c[nH]c(-c3ccc(OCc4ccccc4)cc3)n2)cc(OC)c1OC` [12ja, (2-(4-(benzyloxy)phenyl)-1H-imidazol-4-yl)(3,4,5-trimethoxyphenyl)methanone] had an IC50 in assay [2] of 7300 nM. Turning to `COc1ccc(C(=O)c2nc(-c3ccc(OC)cc3)c[nH]2)cc1` [70w, (4-methoxyphenyl)(4-(4-methoxyphenyl)-1H-imidazol-2-yl)methanone], the IC50 in assay [3] (setting [13]) was 9.39 µM; in assay [4] (setting [14]) it was 23400 nM; in assay [1] (setting [15]), 6.41 µM; in assay [5] (setting [16]), 38.1 µM. Consider `O=C(c1ccc(C(F)(F)F)cc1)c1nc(-c2ccc(C(F)(F)F)cc2)c[nH]1` [70u, (4-(trifluoromethyl)phenyl)(4-(4-(trifluoromethyl)phenyl)-1H-imidazol-2-yl)methanone], for which the IC50 in assay [3] (setting [13]) is greater than 50 µM; in assay [4] (setting [14]) it was greater than 50000 nM; in assay [1] (setting [15]) it was greater than 50 µM; in assay [5] (setting [16]) it was greater than 50 µM. `COc1cc(C(=O)c2csc(-c3ccccc3)n2)cc(OC)c1OC(=O)C(F)(F)F` [compound 23]: the IC50 in assay [1] (setting [6]) is roughly 10 µM. As for `O=C(c1csc(-c2cc(F)c(F)c(F)c2)n1)c1c(F)c(F)c(F)c(F)c1F` [compound 16], the IC50 in assay [1] (setting [6]) was greater than 10 µM. As to `COc1cc(C(=O)c2nc(-c3ccccc3)cn2C)cc(OC)c1OC` [70m, (1-methyl-4-phenyl-1H-imidazol-2-yl)(3,4,5-trimethoxyphenyl)methanone], the IC50 in assay [4] (setting [8]) stood at 16 nM.

As to `O=C(c1ccc(F)cc1)c1c[nH]c(-c2ccc(OCc3ccccc3)cc2)n1` [12jb, (2-(4-(benzyloxy)phenyl)-1H-imidazol-4-yl)(4-fluorophenyl)methanone], the “fold more activity than the comparator” value in assay [2] (2e-cis vs 2e-trans, 12jb vs 12kb) came to 440 fold. In assay [2], the IC50 was found to be 75 nM. Turning to `COc1cc(C(O)c2csc(-c3ccccc3)n2)cc(OC)c1OC` (stereo not shown) [2b, (2-Phenylthiazol-4-yl)(3,4,5-trimethoxyphenyl)methanol], the “antiproliferative activity in words” value in assay [2] was “inactive”. Consider `O=C(c1ccc2c(c1)OCO2)N1CCC(c2ccccc2)CC1` [compound 19], for which the IC50 in assay [1] (setting [6]) is greater than 20 µM.

For the molecule `O=C(c1ccc(F)cc1)c1csc(-c2ccc(F)cc2)n1` [compound 14], the IC50 in assay [1] (setting [6]) was greater than 10 µM. With `COc1cc(OC)cc(C(=O)c2c[nH]c(-c3ccccc3)n2)c1` [12ad, (3,5-dimethoxyphenyl)(2-phenyl-1H-imidazol-4-yl)methanone], the IC50 in assay [2] turned out to be 3100 nM. Regarding `COc1cc(C(=O)c2cccc(-c3ccccc3)c2)cc(OC)c1OC` [1a, Biphenyl-3-yl(3,4,5-trimethoxyphenyl)methanone], in assay [2], the “antiproliferative activity in words” value is listed as “hundreds of nanomolar range”. Regarding `COc1cc(C(=O)c2nc(-c3ccccc3)cn2Cc2ccccc2)cc(OC)c1OC` [70o, (1-benzyl-4-phenyl-1H-imidazol-2-yl)(3,4,5-trimethoxyphenyl)methanone], the IC50 in assay [4] (setting [8]) worked out at 72 nM. With `COc1cc(C(=O)c2csc(-c3ccccc3)n2)cc(OC)c1OC(=O)CCl` [compound 18], the IC50 in assay [1] (setting [6]) was roughly 10 µM. In turn, `COc1ccc(-c2nc(C(=O)c3cc(OC)c(OC)c(OC)c3)cn2S(=O)(=O)c2ccccc2)cc1OC` [11ha, (2-(3,4-dimethoxyphenyl)-1-(phenylsulfonyl)-1H-imidazol-4-yl)(3,4,5-trimethoxyphenyl)methanone] had an IC50 in assay [2] of 268 nM. As to `COc1cc(C(=O)c2csc(-c3ccc(CN(C)C)cc3)n2)cc(OC)c1OC.Cl` [2u, (2-(4-((Dimethylamino)methyl)phenyl)thiazol-4-yl)(3,4,5-trimethoxyphenyl)methanone hydrochloride], in assay [2], the “antiproliferative activity in words” value was “abrogated activity”. Consider `Cc1ccc(-c2nc(C(=O)c3ccc(F)cc3)c[nH]2)cc1` [12db, (4-fluorophenyl)(2-(p-tolyl)-1H-imidazol-4-yl)methanone], for which the IC50 in assay [2] turned out to be 109 nM. `CNCc1ccc(-c2nc(C(=O)c3cc(OC)c(OC)c(OC)c3)cs2)cc1.Cl` [2s, (2-(4-((Methylamino)methyl)phenyl)thiazol-4-yl)(3,4,5-trimethoxyphenyl)methanone hydrochloride]: the “antiproliferative activity in words” value in assay [2] is reported as “abrogated activity”.

In the case of `O=C(c1cc(O)c(O)c(O)c1)c1csc(-c2ccccc2)n1` [compound 33], in assay [1] (setting [6]), the IC50 was greater than 2 µM. For the molecule `COc1cc(C(=O)c2nc(-c3ccccc3)c[nH]2)cc(OC)c1OC` [70a, (4-phenyl-1H-imidazol-2-yl)(3,4,5-trimethoxyphenyl)methanone], the IC50 in assay [4] (setting [8]) is 14 nM. `O=C(c1cc(O)c(O)c(O)c1)c1c[nH]c(-c2ccc(Cl)cc2)n1` [13fa, (2-(4-chlorophenyl)-1H-imidazol-4-yl)(3,4,5-trihydroxyphenyl)methanone]: the IC50 in assay [2] was determined as 3890 nM.
